Each compound was assayed on OVCAR-3 (assay: OVCAR3 CTG assay). Details: Homo sapiens, OVCAR-3, 144 h; CellTiter-Glo, 6 days incubation.
Type: cell-based
Description: Example B2: OVCAR3 CTG Assay
• a) Preparation of complete medium: Added FBS and appropriate additives according to the information sheet provided by the vendor. Mix gently. • b) Checked the cell name and complete medium and passage number marked on the flask. For adherent cell lines, refer to c to k. For suspension cell lines, refer to g to k. • c) Removed and discarded culture medium using a vacuum pump. • d) Briefly rinsed the cell layer with 0.25% (w/v) Trypsin-0.038% (w/v) EDTA solution to remove all traces of serum that contains trypsin inhibitor. • e) Added 3.0 ml of Trypsin-EDTA solution to flask and observed cells under an inverted microscope until cell layer is dispersed. • f) Added 9.0 ml of complete growth medium and aspirated cells by gently pipetting. • g) Transfered the cell suspension to a centrifuge tube and centrifuged at 1000 rpm for 4 minutes. • h) Discarded the supernatant using a vacuum pump. • i) Added appropriate volume of complete medium. Suspended the cell pellet by gently pipetting. • j) Counted the cell numbers with Vi-cell XR and adjusted cells to appropriate density. • k) Added 190 μL of cell suspension to 96-well opaque-walled clear bottom plates according to the planned plate layout and placed the plates in the CO2 incubator overnight.
2) Compound Stock Preparation:
• a) Plate preparation of testing articles:
The compounds were dissolved in DMSO to prepare 10 mM stock solution. The start working concentration (2 mM) was prepared with DMSO.
b) Staurosporine Plate Preparation:
0.4 mM Staurosporine was prepared in DMSO at working concentration.
The 20× compound containing medium was prepared according to the plate map. 10 μL of 20× compound containing medium was added into each well of the assay plates. Centrifuged at 1000 rpm for 1 minute. The total dilution was 200-fold.
3) Cells were Incubated with the Compounds for 6 Days at 5% CO2, 37° C.
Assay Measurement for CTG Assay
1) Preparation of Reagents
• a) Thawed the CellTiter-Glo buffer and equilibrated to room temperature prior to use. • b) Equilibrated the lyophilized CellTiter-Glo substrate to room temperature prior to use. • c) Transfered the appropriate volume of CellTiter-Glo buffer into the amber bottle containing CellTiter-Glo substrate to reconstitute the lyophilized enzyme/substrate mixture. This formed the CellTiter-Glo reagent. • d) Mixed by gently vortexing, swirling or by inverting the contents to obtain a homogeneous solution. The CellTiter-Glo substrate went into solution easily in less than one minute.
• a) Observed the cell morphology under an inverted microscope after corresponding treatment. • b) Equilibrated the plate and its contents to room temperature for approximately 30 minutes. • c) Added 100 μL of CellTiter-Glo reagent to the assay plate by Multidrop Combi instrument. • d) Mixed contents for 10 minutes on an orbital shaker to induce cell lysis. • e) Allowed the plate to incubate at room temperature for 10 minutes to stabilize luminescent signal. • f) Pasted the clear bottom with white back seal and record luminescence with Envision. The settings should be: Luminescence, measurement time 0.1 s.

| SMILES | IC50 [nM] |
| --- | --- |
| C[C@H]1COCC2(C(F)(F)F)CCN(CC2)c2cc(NS(=O)(=O)CCO)ccc2C(=O)Nc2cccc(n2)CO1 [EX84-A] | 10 to 100 |
| C[C@H]1CCOCC2(C(F)(F)F)CCN(CC2)c2cc(NS(=O)(=O)CCO)ccc2C(=O)Nc2cccc(n2)N1 [EX107-B] | 10 to 100 |
| O=C1Nc2ccnc(n2)N2CCO[C@@H](COCC3(C(F)(F)F)CCN(CC3)c3cc(NS(=O)(=O)CCO)ccc31)C2 [EX93-B] | 10 to 100 |
| CO[C@@H]1CNc2cccc(n2)NC(=O)c2ccc(NS(=O)(=O)CCO)cc2N2CCC(C(F)(F)F)(CC2)COC1 [EX78-A] | 10 to 100 |
| C[C@@H]1COCC2(C(F)(F)F)CCN(CC2)c2cc(NS(=O)(=O)CCO)ccc2C(=O)Nc2cccc(n2)CO1 [EX84-B] | 10 to 100 |
| Cc1cc2nc(n1)NC[C@@H](C(F)(F)F)COCC1(C)CCN(CC1)c1cc(NS(=O)(=O)CCO)ccc1C(=O)N2 [EX32-B] | 10 to 100 |
| O=C1Nc2cccc(n2)N2CCO[C@H](COCC3(C(F)(F)F)CCN(CC3)c3cc(NS(=O)(=O)CCO)ncc31)C2 [EX92-A] | 10 to 100 |
| C[C@H]1CNc2nc(ccc2F)NC(=O)c2ccc(NS(=O)(=O)CCO)cc2N2CCC(C(F)(F)F)(CC2)COC1 [EX76-A] | < 10 |
| C[C@@H]1CCCC2(C(F)(F)F)CCN(CC2)c2cc(NS(=O)(=O)CCO)c(F)cc2C(=O)Nc2cccc(n2)NC1 [EX105-A] | < 10 |
| O=C1Nc2cccc(n2)N2CCO[C@@H](COCC3(C(F)(F)F)CCN(CC3)c3cc(NS(=O)(=O)CCO)ncc31)C2 (stereo in doubt) [EX92-B] | < 10 |
| Cc1cc2nc(n1)N1CCO[C@@H](COCC3(C(F)(F)F)CCN(CC3)c3cc(NS(=O)(=O)CCO)ccc3C(=O)N2)C1 (stereo in doubt) [EX96-B] | 10 to 100 |
| CO[C@H]1CNc2cccc(n2)NC(=O)c2ccc(NS(=O)(=O)CCO)cc2N2CCC(C(F)(F)F)(CC2)COC1 [EX78-B] | < 10 |
| CO[C@@H]1CNc2nc(C)cc(n2)NC(=O)c2ccc(NS(=O)(=O)CCO)cc2N2CCC(C(F)(F)F)(CC2)COC1 [EX46-B] | 10 to 100 |
| C[C@@H]1C/C=C/C2(C(F)(F)F)CCN(CC2)c2cc(NS(=O)(=O)CCO)ccc2C(=O)Nc2cccc(n2)NC1 [EX85-A] | 10 to 100 |
| C[C@@H]1CCCC2(C(F)(F)F)CCN(CC2)c2cc(NS(=O)(=O)CCO)ncc2C(=O)Nc2cccc(n2)NC1 [EX100-A] | 10 to 100 |
| C[C@H]1CCCC2(C(F)F)CCN(CC2)c2cc(NS(=O)(=O)CCO)ccc2C(=O)Nc2cccc(n2)NC1 [EX102-B] | < 10 |
| O=C1Nc2cccc(n2)N2CCO[C@H](COCC3(C(F)(F)F)CCN(CC3)c3cc(NS(=O)(=O)CCO)ccc31)C2 [EX81-B] | 10 to 100 |
| C[C@@H]1CNc2nc(ccc2F)NC(=O)c2ccc(NS(=O)(=O)CCO)cc2N2CCC(C(F)(F)F)(CC2)COC1 [EX76-B] | 10 to 100 |
| Cc1cc2nc(n1)NC[C@H](C(F)(F)F)COCC1(C)CCN(CC1)c1cc(NS(=O)(=O)CCO)ccc1C(=O)N2 [EX32-A] | 10 to 100 |
| C[C@@H]1CCCC2(C(F)(F)F)CCN(CC2)c2cc(NS(=O)(=O)CCO)ccc2C(=O)Nc2cccc(n2)NC1 [EX79-A] | 10 to 100 |
| C[C@@H]1CCOCC2(C(F)(F)F)CCN(CC2)c2cc(NS(=O)(=O)CCO)ccc2C(=O)Nc2cccc(n2)N1 [EX107-A] | 100 to 1000 |
| C[C@H]1CCCC2(C(F)(F)F)CCN(CC2)c2cc(NS(=O)(=O)CCO)ccc2C(=O)Nc2cccc(n2)NC1 [EX79-B] | < 10 |

Now from value to compound:

| IC50 [nM] | SMILES |
| --- | --- |
| 10 to 100 | Cc1cc2nc(n1)NC1CC(C1)OCC1(C(F)(F)F)CCN(CC1)c1cc(NS(=O)(=O)CCO)ccc1C(=O)N2 [EX53] |
| 100 to 1000 | O=C1Nc2ccc(=O)n(n2)CCCCCC2(C(F)(F)F)CCN(CC2)c2cc(NS(=O)(=O)CCO)ccc21 [EX65] |
| 10 to 100 | CN1CCCCCC2(C(F)(F)F)CCN(CC2)c2cc(NS(=O)(=O)CCO)ncc2C(=O)Nc2cccc1n2 [EX89] |
| 10 to 100 | CN1CCCCCC2(C(F)(F)F)CCN(CC2)c2cc(NS(=O)(=O)CCO)c(F)cc2C(=O)Nc2cccc1n2 [EX104] |
| 10 to 100 | Cc1cc2nc(n1)NCC(F)(F)COCC1(C)CCN(CC1)c1cc(NS(=O)(=O)CCO)ccc1C(=O)N2 [EX28] |
| 10 to 100 | O=C1Nc2cccc(n2)NCCC/C=C/C2(C(F)(F)F)CCN(CC2)c2cc(NS(=O)(=O)CCO)ccc21 [EX83] |
| 100 to 1000 | CN1CCCOCC2(C(F)(F)F)CCN(CC2)c2cc(NS(=O)(=O)CCO)ccc2C(=O)Nc2cncc1n2 [EX75] |
| 10 to 100 | CCS(=O)(=O)Nc1cc2c(cn1)C(=O)Nc1cccc(n1)N(C)CCCOCC1(C(F)(F)F)CCN2CC1 [EX97] |
| 10 to 100 | CN1CCCOCC2(C(F)F)CCN(CC2)c2cc(NS(=O)(=O)CCO)ccc2C(=O)Nc2ccnc1n2 [EX95] |
| 100 to 1000 | CN1CC(F)(F)COCC2(C(F)(F)F)CCN(CC2)c2cc(NS(=O)(=O)CCO)ccc2C(=O)Nc2cccc1n2 [EX108] |
| 10 to 100 | Cc1cc2nc(n1)N(C)CCCOCC1(C(F)(F)F)CCN(CC1)c1cc(S(=O)(=O)NC(C)(C)C)ccc1C(=O)N2 [EX30] |
| 10 to 100 | O=C1Nc2ccc(=O)n(n2)CCCCCCC2(C(F)(F)F)CCN(CC2)c2cc(NS(=O)(=O)CCO)ccc21 [EX64] |
| < 10 | O=C1Nc2cccc(n2)NCCCCCC2(C(F)(F)F)CCN(CC2)c2cc(NS(=O)(=O)CCO)ccc21 [EX103] |
| 100 to 1000 | CN1CCCOCC2(C(F)(F)F)CCN(CC2)c2cc(NS(=O)(=O)CCO)ccc2C(=O)Nc2cc(Cl)cc1n2 [EX99] |
| 10 to 100 | [2H]C([2H])([2H])N1CCCOCC2(C(F)(F)F)CCN(CC2)c2cc(NS(=O)(=O)CCO)ccc2C(=O)Nc2cc(C)nc1n2 [EX44] |
| 10 to 100 | [2H]C([2H])([2H])N1CCCOCC2(C(F)(F)F)CCN(CC2)c2cc(S(=O)(=O)NCCO)ccc2C(=O)Nc2cccc1n2 [EX70] |
| 10 to 100 | O=C1Nc2cccc(n2)NCC2(CC2)COCC2(C(F)(F)F)CCN(CC2)c2cc(NS(=O)(=O)CCO)ccc21 [EX68] |

| IC50 [nM] | SMILES |
| --- | --- |
| 100 to 1000 | C/C1=C/CNc2cccc(n2)NC(=O)c2ccc(NS(=O)(=O)CCO)cc2N2CCC(C(F)(F)F)(CC2)COC1 [EX77] |
| 10 to 100 | Cc1cc2nc(n1)NC/C=C\COCC1(C(F)(F)F)CCN(CC1)c1cc(NS(=O)(=O)CCO)ccc1C(=O)N2 [EX51] |
| 100 to 1000 | O=C1NCCOCC2(C(F)(F)F)CCN(CC2)c2cc(NS(=O)(=O)CCO)ccc2C(=O)Nc2cccc1n2 [EX49] |
| 10 to 100 | CN1CCCOCC2(C(F)F)CCN(CC2)c2cc(NS(=O)(=O)CCO)ccc2C(=O)Nc2cccc1n2 [EX110] |
| 100 to 1000 | CN1CCCOCC2(C(F)(F)F)CCN(CC2)c2cc(NS(=O)(=O)CCO)ccc2C(=O)Nc2cc(Cl)nc1n2 [EX94] |
| 10 to 100 | [2H]C([2H])([2H])N1CCCOCC2(C(F)(F)F)CCN(CC2)c2cc(S(=O)(=O)NC(C)(C)C)ccc2C(=O)Nc2cccc1n2 [EX69] |
| 10 to 100 | O=C1Nc2cccc(n2)N(C2CC2)CCCOCC2(C(F)(F)F)CCN(CC2)c2cc(NS(=O)(=O)CCO)ccc21 [EX71] |
| 100 to 1000 | CCS(=O)(=O)Nc1cc2c(cn1)C(=O)Nc1cccc(n1)N(C)CCCCCC1(C(F)(F)F)CCN2CC1 [EX98] |
| 1000 to 10000 | Cc1cc2nc(n1)NC/C=C/COCC1(C(F)(F)F)CCP(=O)(CC1)c1cc(NS(=O)(=O)CCO)ccc1C(=O)N2 [EX52] |
| 10 to 100 | CC1CNc2cccc(n2)NC(=O)c2ccc(NS(=O)(=O)CCO)cc2N2CCC(C(F)(F)F)(CC2)COC1 (centres unmarked) [EX56] |
| 1000 to 10000 | [2H]C([2H])([2H])N1CCCCOCC2(C(F)(F)F)CCN(CC2)c2cc(NS(=O)(=O)CCO)ccc2C(=O)Nc2cc(C)nc1n2 [EX47] |
| 1000 to 10000 | CN1CCCOCC2(C(F)(F)F)CCN(CC2)c2cc(NS(=O)(=O)CCO)ccc2C(=O)Nc2nccc1n2 [EX87] |
| 10 to 100 | O=C1Nc2cccc(n2)NC/C=C\COCC2(C(F)(F)F)CCN(CC2)c2cc(NS(=O)(=O)CCO)ccc21 [EX66] |
| 100 to 1000 | [2H]C([2H])([2H])N1CCCCC2(C(F)(F)F)CCN(CC2)c2cc(NS(=O)(=O)CCO)ccc2C(=O)Nc2cccc1n2 [EX63] |
| 10 to 100 | Cc1cc2nc(n1)NCC(C)COCC1(C#N)CCN(CC1)c1cc(NS(=O)(=O)CCO)ccc1C(=O)N2 (centres unmarked) [EX42] |
| 10 to 100 | CC12CCN(CC1)c1cc(S(=O)(=O)NC(C)(C)C)ccc1C(=O)Nc1cccc(n1)OCCCOC2 [EX07] |
| 10 to 100 | CN1CCCOCC2(C(F)(F)F)CCN(CC2)c2cc(NS(=O)(=O)CCO)cnc2C(=O)Nc2cccc1n2 [EX86] |

Source: patent US20250340569A1, “INHIBITORS OF KIF18A AND USES THEREOF” (Insilico Medicine IP Limited, priority 2023, published 2025)
